Laboratory results taken from patent publication US7205305B2, “Inhibitors of p38” (Vertex Pharmaceuticals Incorporated, priority 1996, dated 2007).

Assays:
[1] = molecular target: T1, activated p38 (Homo sapiens, UniProt Q16539); experiment: Inhibition of phosphorylation of EGF receptor peptide ("kinase"); assay type: biochemical; settings: inhibition of phosphorylation of EGF receptor peptide by activated p38
Method in brief: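 Activated p38 was preincubated with inhibitor for 15 min at room temperature in 100 mM HEPES pH 7.6, 10 mM MgCl2, 25 mM β-glycerophosphate, 10% glycerol, 5% DMSO final. Reaction used 200 μM EGF receptor peptide and 100 μM ATP for 30 min at 30° C. TFA-quenched phosphopeptide was quantified by reverse-phase HPLC.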

[2] = molecular target: T1, activated p38; experiment: Inhibition of ATPase activity; assay type: biochemical; settings: ATPase activity of activated p38 (60 nM), 30° C., 30 minutes
Method: This assay was carried out in the presence of 10 mM MgCl2, 25 mM β-glycerophosphate, 10% glycerol and 100 mM HEPES buffer at pH 7.6. For a typical Ki determination, the Km for ATP in the ATPase activity of activated p38 reaction was determined in the absence of inhibitor and in the presence of two concentrations of inhibitor. A stock solution was prepared containing all of the above components and activated p38 (60 nM). The stock solution was aliquotted into vials. […] The reaction was initiated by adding various concentrations of ATP and then incubated at 30° C. After 30 minutes, the reactions were quenched with 50 μl of EDTA (0.1 M, final concentration), pH 8.0. The product of p38 ATPase activity, ADP, was quantified by HPLC analysis.
Separation of ADP from ATP was achieved on a reversed phase column (Supelcosil, LC-18, 3 μm, part no. 5–8985) using a binary solvent gradient of following composition: Solvent A—0.1 M phosphate buffer containing 8 mM tetrabutylammonium hydrogen sulfate (Sigma Chemical Co., catalogue no. T-7158), Solvent B—Solvent A with 30% methanol.
Ki was determined from the rate data as a function of inhibitor and ATP concentrations.

[3] = tested on: IL-1 production in LPS-stimulated PBMCs; experiment: Inhibition of IL-1 production in LPS-stimulated PBMCs ("cell"); assay type: cell-based, human; settings: Homo sapiens, PBMC
Method in brief: (§1)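 Cytokine levels (IL-1β, TNF-α) in culture supernatants quantified by ELISA, with IC50 taken from dose-response curves. Fresh human PBMCs in RPMI1640 with 10% FBS received serially diluted compound plus LPS (4 ng/ml final) and were cultured 12–15 h at 37 °C, 5% CO2.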

[4] = tested on: TNF production in LPS-stimulated PBMCs; experiment: Inhibition of TNF production in LPS-stimulated PBMCs ("cell"); assay type: cell-based, human; settings: Homo sapiens, PBMC
Method in brief: as §1

[5] = tested on: IL-1 production in whole blood; experiment: Inhibition of IL-1 production in LPS-stimulated whole blood ("WB"); assay type: cell-based, human; settings: Homo sapiens
Method: (§2) Inhibitors were serially diluted in DMSO from a 20 mM stock. At least 6 serial dilutions were prepared. Then 4× inhibitor stocks were prepared by adding 4 μl of an inhibitor dilution to 1 ml of RPMI1640 medium/10% fetal bovine serum. The 4× inhibitor stocks contained inhibitor at concentrations of 80 μM, 32 μM, 12.8 μM, 5.12 μM, 2.048 μM, 0.819 μM, 0.328 μM, 0.131 μM, 0.052 μM, 0.021 μM etc. The 4× inhibitor stocks were pre-warmed at 37° C. until use.
(§3) Alternatively, whole blood containing an anti-coagulant was used directly in the assay.
(§4) We placed 100 μl of cell suspension or whole blood in each well of a 96-well cell culture plate. Then we added 50 μl of the 4× inhibitor stock to the cells. Finally, we added 50 μl of a lipopolysaccharide (LPS) working stock solution (16 ng/ml in cell culture medium) to give a final concentration of 4 ng/ml LPS in the assay. The total assay volume of the vehicle control was also adjusted to 200 μl by adding 50 μl cell culture medium. The PBMC cells or whole blood were then incubated overnight (for 12–15 hours) at 37° C./5% CO2 in a humidified atmosphere.
(§5) The next day the cells were mixed on a shaker for 3–5 minutes before centrifugation at 500×g for 5 minutes. Cell culture supernatants were harvested and analyzed by ELISA for levels of IL-1b (R & D Systems, Quantikine kits, #DBL50), TNF-α (BioSource, #KHC3012), IL-6 (Endogen, #EH2-IL6) and IL-8 (Endogen, #EH2-IL8) according to the instructions of the manufacturer. The ELISA data were used to generate dose-response curves from which IC50 values were derived.

[6] = tested on: TNF production in whole blood; experiment: Inhibition of TNF production in LPS-stimulated whole blood ("WB"); assay type: cell-based, human; settings: Homo sapiens
Method: as §2, §3, §4, §5

[7] = tested on: IL-6 production in whole blood; experiment: Inhibition of IL-6 production in LPS-stimulated whole blood ("WB"); assay type: cell-based, human; settings: Homo sapiens
Method: as §2, §3, §4, §5

T1 sequence (Q16539 whole entry): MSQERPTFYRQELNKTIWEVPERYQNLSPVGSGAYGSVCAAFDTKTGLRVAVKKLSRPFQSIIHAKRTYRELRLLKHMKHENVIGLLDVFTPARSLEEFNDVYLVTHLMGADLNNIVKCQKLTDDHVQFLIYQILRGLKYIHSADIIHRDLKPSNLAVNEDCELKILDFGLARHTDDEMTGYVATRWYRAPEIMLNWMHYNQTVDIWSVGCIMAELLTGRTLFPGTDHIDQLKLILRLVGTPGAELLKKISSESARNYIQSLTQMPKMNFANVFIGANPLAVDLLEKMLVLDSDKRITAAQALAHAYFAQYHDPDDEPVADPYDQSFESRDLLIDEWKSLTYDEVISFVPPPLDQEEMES

| Structure (SMILES) | IC50 [1] [nM] | Ki [2] [nM] | IC50 [3] [nM] | IC50 [4] [nM] | IC50 [5] [nM] | IC50 [6] [nM] | IC50 [7] [nM] |
| --- | --- | --- | --- | --- | --- | --- | --- |
| O=c1ncn2nc(Sc3ccccc3)ccc2c1-c1ccc(F)cc1 [Compound 2] | ≥ 1000 | 15000 |  |  |  |  |  |
| O=c1ncn2nc(Sc3ccccc3)ccc2c1-c1ccc(Cl)cc1Cl [Compound 3] | ≥ 1000 | 5000 |  |  |  |  |  |
| Cc1ccc(Sc2ccc3c(-c4ccc(Cl)cc4Cl)c(=O)ncn3n2)cc1 [Compound 5] | ≥ 1000 | 2900 |  |  |  |  |  |
| NC(=O)C(c1cccc(-c2ccccc2/C=N\O)n1)c1c(Cl)cccc1Cl (stereo not drawn) [Compound 307] | ≤ 100 |  | 100 to 500 | ≥ 500 | ≥ 500 | ≥ 500 | ≥ 500 |
| NC(=O)C(c1cccc(-c2ccc(F)cc2)n1)c1c(Cl)cccc1Cl (stereo not drawn) [Compound 309] | 100 to 1000 |  | 100 to 500 | 100 to 500 | ≥ 500 | ≥ 500 | ≥ 500 |
| Cc1cccc(-c2cccc(C(C(N)=O)c3c(Cl)cccc3Cl)n2)c1 (stereo not drawn) [Compound 312] | ≤ 100 |  | 100 to 500 | ≥ 500 | ≥ 500 | ≥ 500 | ≥ 500 |
| NC(=O)C(c1cccc(-c2ccc(Cl)cc2Cl)n1)c1c(Cl)cccc1Cl (stereo not drawn) [Compound 325] | ≤ 100 |  | ≤ 100 | 100 to 500 | ≥ 500 | ≥ 500 | ≥ 500 |
| NC(=O)C(c1cccc(-c2ccc(F)cc2)n1)c1c(F)cccc1Cl (stereo not drawn) [Compound 329] | 100 to 1000 |  | 100 to 500 | ≥ 500 | ≥ 500 | ≥ 500 | ≥ 500 |
| Cc1cccc(-c2cccc(C(C(N)=O)c3c(F)cccc3Cl)n2)c1 (stereo not drawn) [Compound 332] | 100 to 1000 |  | 100 to 500 | ≥ 500 | ≥ 500 | ≥ 500 | ≥ 500 |
| Cc1ccccc1-c1cccc(C(C(N)=O)c2c(F)cccc2Cl)n1 (stereo not drawn) [Compound 335] | 100 to 1000 |  | ≥ 500 | ≥ 500 | ≥ 500 | ≥ 500 | ≥ 500 |
| NC(=O)C(c1cccc(-c2ccc(Cl)cc2Cl)n1)c1c(F)cccc1Cl (stereo not drawn) [Compound 346] | 100 to 1000 |  | ≥ 500 | ≥ 500 | ≥ 500 | ≥ 500 | ≥ 500 |
| NC(=O)C(c1cccc(-c2ccccc2)n1)c1cc(Cl)ccc1Cl (stereo not drawn) [Compound 349] | ≥ 1000 |  | 100 to 500 | ≥ 500 | ≥ 500 | ≥ 500 | ≥ 500 |
| NC(=O)C(c1cccc(-c2cccc3ccccc23)n1)c1c(Cl)cccc1Cl (stereo not drawn) [Compound 362] | ≤ 100 |  | 100 to 500 | 100 to 500 | ≥ 500 | ≥ 500 | ≥ 500 |
| Cc1cc(F)ccc1-c1cccc(C(C(N)=O)c2c(Cl)cccc2Cl)n1 (stereo not drawn) [Compound 363] | ≤ 100 |  | ≤ 100 | 100 to 500 | ≥ 500 | ≥ 500 | ≥ 500 |
| Cc1cc(F)ccc1-c1cccc(C(C(N)=O)c2c(Cl)cc(N)cc2Cl)n1 (stereo not drawn) [Compound 364] | ≤ 100 |  | ≤ 100 | 100 to 500 | ≥ 500 | ≥ 500 | ≥ 500 |
| NC(=O)N(c1cccc(-c2ccccc2)n1)c1c(Cl)cccc1Cl [Compound 401] | ≤ 100 |  | 100 to 500 | 100 to 500 | ≥ 500 | ≥ 500 | ≥ 500 |
| Cc1ccccc1-c1cccc(N(C(N)=O)c2c(Cl)cccc2Cl)n1 [Compound 402] | ≤ 100 |  | ≤ 100 | ≤ 100 | ≥ 500 | ≥ 500 | ≥ 500 |
| Cc1ccccc1-c1cccc(N(C(N)=O)c2c(F)cccc2F)n1 [Compound 403] | ≤ 100 |  | ≤ 100 | ≤ 100 | ≥ 500 | ≥ 500 | 250 to 500 |
| NC(=O)N(c1cccc(-c2ccc(F)cc2)n1)c1c(F)cccc1F [Compound 404] | ≤ 100 |  | ≤ 100 | ≤ 100 | ≥ 500 | ≥ 500 | ≥ 500 |
| Cc1cc(F)ccc1-c1cccc(N(C(N)=O)c2c(Cl)cccc2Cl)n1 [Compound 409] | ≤ 100 |  | ≤ 100 | ≤ 100 | ≥ 500 | ≥ 500 | 250 to 500 |
| Cc1cc(F)ccc1-c1cccc(N(C(N)=O)c2c(F)cccc2F)n1 [Compound 410] | ≤ 100 |  | ≤ 100 | ≤ 100 | 250 to 500 | 250 to 500 | 250 to 500 |
| Cc1cc(F)ccc1-c1cccc(N(C(N)=O)c2cc3c(cc2Cl)OCO3)n1 [Compound 411] | ≤ 100 |  | ≤ 100 | ≤ 100 | ≥ 500 | ≥ 500 | ≥ 500 |
